Values quoted from earlier work in patent US20100080856A1, “Method and composition for postoperative wound healing” (priority 2008, published 2010).

System: wound healing in severe burn patients
Settings: oral administration, Crit Care Med. 2000, Vol 28, No. 6, 1772-1776

NCCC[C@H](N)C(=O)O.NCCC[C@H](N)C(=O)O.O=C(O)CCC(=O)C(=O)O [ornithine α-ketoglutarate]
wound healing time: shortens the wound healing time
